Assay results as given in patent publication US10444244B2, “Microfluidic array supporting a lipid bilayer assembly” (DUBLIN CITY UNIVERSITY, priority 2014, dated 2019).

Columns and labels:
[1] = FLCS/FCS of labelled lipid diffusion in DOPC bilayer over buffer-filled PDMS cavity array after drug addition; type: physicochemical; conditions: for impact on diffusion of the lipophilic BODIPY-HPC probe: PBS pH 7.4, 15 mins incubation, ibuprofen 4-200 μmol, diclofenac 4-800 μmol
Procedure: The lower dye concentration is required for FLCS experiments.
FLCS measurements were recorded over cavities as well as flat PDMS surfaces to obtain the autocorrelation functions for each surface. […] The autocorrelation curves obtained were fit to the 2-dimensional model described in equation 1 to obtain the lateral diffusion co-efficient of the lipids in the bilayer.
where, G(τ) is the autocorrelation function, N is the average number of fluorescent molecules present in the confocal volume, τi is the characteristic residence time, and α is the anomalous parameter which reflects the extent of deviation of diffusion from normal or Brownian motion where α=1, i is the index of the components. The lateral diffusion coefficient, DL, can be obtained as DL=ω^2/4τi. In this equation, ω is the radius of the laser beam used. To determine ω for each excitation, a reference solution of free dye was used for which the diffusion coefficient is known.
The probe is BODIPY labelled DOPE at 1% mol/mol lipid.
Monitoring the diffusion of each probe permitted assessment of interaction of the drug with the membrane and where this interactions occurred; i.e. did it bind to the interface or intercalate in the bilayer? Only a single probe is necessary in most instances, however depending on the sophistication of the FCS instrument two labels can be used in a single two colour experiment or they can be applied in separate experiments to yield detailed insights into the location of the drug at the membrane.

[2] = for decrease in resistivity of DOPC bilayer: between 0 and 400 umol drug, PBS buffer pH 7.4 on both sides of the pore
Procedure: A gold microcavity electrode is first modified with 2-mercaptoethanol by immersing them in a 1 mM solution in ethanol overnight after which they are sonicated in Tris buffer for 30 munities to pre fill the cavities (in the gold electrode or substrate). A DOPC monolayer is then deposited onto the microcavity electrode using a Langmuir-Blödgett deposition of monolayer followed by DOPC disruption at this monolayer to form a bilayer.
Measurements are performed with a potential of 0 V and a frequency range of 0.01 Hz to 100000 Hz with a standard 3 electrode set up with an Ag/AgCl reference electrode. All experiments are performed in Tris NaCl buffer with the cell contained inside a Faraday cage.
Electrochemical Impedance Spectroscopy (EIS) is highly sensitive to changes in the bilayer and this sensitivity can be enhanced by using an electrochemical probe such as ferrocyanide in the contacting solution (i.e., solution contacting the outer surface of the array) or in applying an ionic gradient across the membrane by applying slightly different pH or ionic strength at the solution at each side of the membrane e.g., by pre-filling the cavities with a different ionic strength solution to that contacting solution which will operably be in contact with the top leaflet of the bilayer (i.e. away from the cavity). Within this context the inner membrane leaflet refers to the lipid layer closest to the cavities and the outer leaflet is that the lipid layer pointed away from the cavities and operably in contact with the contacting solution that is introduced into the inlet and out through the outlet of the microfluidic platform.
The experiment was carried out in PBS buffer at pH 7.4 at room temperature with cavities filled with same buffer solution. A microfluidic platform having an inlet and outlet (similar to the platform of FIG. 2) is used to introduce the ibuprofen to the bilayer.
The bilayers are stable to introduction of several volumes of buffer at the end of a study and we were able to monitor for reversibility of binding.

[3] = EIS of DOPC bilayer with K+/Na+ ion gradient after Valinomycin incorporation; type: physicochemical; conditions: 20 μM from ethanol solution; cavities Tris KCl, contacting solution Tris NaCl
Procedure: (§1) Gold microcavity electrodes were formed through the method described herein using electrodeposition of gold through a close packed array of polystyrene spheres (2.88 micron in diameter) after which the spheres where removed by sonication in THF for 30 minutes. The gold microcavity array was then modified with mercaptoethanol (ME) by placing the substrate in a 1 mM solution of ME, in ethanol, for 24 hours. Alternatively it is possible to selectively modify the top surface with mercaptonexanol before removal of the spheres and leave the cavities free of surface modification after sphere removal. This latter approach gives even greater reproducibility.
After sonication a DOPC bilayer was formed over the micro-cavities using a combination of Langmuir-Blodgett and vesicle fusion as described above.
Electrochemical impedance spectra (EIS) of this bilayer were measured by placing the array in contact with Tris NaCl. This creates an ion gradient across the lipid bilayer. The bilayer, effectively insulates the pore from the external contacting solution but once Valinomycin is introduced this should cause K+ ions to flow from inside the cavities into the bulk solution (see schematic in FIG. 18). The impedance of the DOPC bilayer was measured in the presence of this ionic gradient. Valinomycin was then introduced into the cell by adding 20 μM from an ethanol solution. […]

[4] = Electrorelease of CD from cavity to cholesterol containing bilayer, bilayer resistance; type: physicochemical
Text: As an example. Mercaptoferrocene was self-assembled only at the inner cavity surface and a blocking thiolated alcohol (mercaptoethanol or mercaptohexanol) was assembled at the top surface of the array, by modification of the top surface of the array prior to release of the templating sphere and then adhering the ferrocene after sphere removal. The ferrocene binds selectively to streptavidin modified beta-cyclodextrin (CD-streptavidin) which is assembled prior to assembly of the DOPC/DOPC biotinylated bilayer. Application of 0.5 V vs Ag/AgCl results in oxidation of the ferrocene, which in the presence of Na+ acquires a permanent positive charge, preventing reassembly of the CD-streptavidin. The released CD-streptavidin diffuses to the bilayer where its streptavidin pendant recognises and binds to biotin. Such electrorelease can be combined with EIS to allow for the detection of interaction of released agent with the bilayer, and/or it can also be combined with spectroscopic methods, such as Raman and fluorescence spectroscopy for further investigation. […] In principle, the quantity of cholesterol removed can be controlled by altering the quantity of CD at the cavity through use of a mixed monolayer

[5] = EIS of DOPC bilayer with K+/H+ gradient after Nigericin incorporation; type: physicochemical; conditions: 20 μM from ethanol solution; cavities 150 mM K+, outside citrate buffer pH 4, H+ 10 mMol
Procedure: as §1
Nigericin is an antiporter of H+ and K+, Herein, the cavities where prefilled with 150 mM K+ before bilayer formation. Citrate buffer (at pH 4) was then added to the electrolyte to supply the system with H+(10 mMol) ions on the outside of the bilayer. The impedance of the DOPC bilayer was measured in the presence of this ionic gradient.

[6] = DOPC bilayer, 2.8 um PDMS pores

CC(C)Cc1ccc(C(C)C(=O)O)cc1 (stereo not drawn) [ibuprofen]
diffusion coefficient of the ATTO probe (DOPE-ATTO655) ([1]; 100 μmol of ibuprofen, DOPC bilayer, PBS pH 7.4, without drug 10.37±0.72): 12.05±0.6 μm^2 s^−1 | impact on diffusion of the lipophilic BODIPY-HPC probe [1, 6]: little impact | membrane lipid diffusion coefficient after exposure of the bilayer ([1]; ibuprofen 4 mMol, DOPC bilayer with 1% mol/mol BODIPY labelled DOPE, 2.8 um PDMS pores, PBS pH 7.4, room temperature, without drug approximately 7): approximately 9.5 μms^−1 | decrease in resistivity of DOPC bilayer [2]: roughly 6% | effect on capacitance of the layer ([2]; ibuprofen at 4 and then 8 mMol, 2.8 μm gold cavity arrays, PBS pH 7.4): initially in a decrease followed by a substantial increase in capacitance | effect on impedance of the bilayer at equilibrium ([2]; ibuprofen at 4 and then 8 mMol, 2.8 μm gold cavity arrays, PBS pH 7.4, room temperature, ferrocyanide redox probe): decrease in impedance

CC(C)[C@@H]1NC(=O)[C@H](C)OC(=O)[C@@H](C(C)C)NC(=O)[C@@H](C(C)C)OC(=O)[C@H](C(C)C)NC(=O)[C@H](C)OC(=O)[C@@H](C(C)C)NC(=O)[C@@H](C(C)C)OC(=O)[C@H](C(C)C)NC(=O)[C@H](C)OC(=O)[C@@H](C(C)C)NC(=O)[C@@H](C(C)C)OC1=O [Valinomycin]
change of bilayer resistance after ionophore incorporation [3]: a decrease in the resistance was observed

O=C(O)Cc1ccccc1Nc1c(Cl)cccc1Cl [diclofenac]
diffusion coefficient of Atto-655 labelled DOPE ([1]; 800 μmol diclofenac, DOPC bilayer, PBS pH 7.4, at 0 drug 11.71±0.82): 43.5±8.13 μm^2 s^−1 | impact on diffusion of the lipophilic BODIPY-HPC probe [1, 6]: little effect | decrease in resistivity of DOPC bilayer [2]: 65%

OC[C@H]1O[C@@H]2O[C@H]3[C@H](O)[C@@H](O)[C@@H](O[C@H]4[C@H](O)[C@@H](O)[C@@H](O[C@H]5[C@H](O)[C@@H](O)[C@@H](O[C@H]6[C@H](O)[C@@H](O)[C@@H](O[C@H]7[C@H](O)[C@@H](O)[C@@H](O[C@H]8[C@H](O)[C@@H](O)[C@@H](O[C@H]1[C@H](O)[C@H]2O)O[C@@H]8CO)O[C@@H]7CO)O[C@@H]6CO)O[C@@H]5CO)O[C@@H]4CO)O[C@@H]3CO [unlabeled CD, beta-cyclodextrin]
effect of electroreleased agent on cholesterol containing bilayer [4]: removal of cholesterol from the bilayer, reflected in a decrease in resistance of the bilayer film

CO[C@@H]1C[C@@H](C[C@H]2CC[C@H](C)[C@H]([C@@H](C)C(=O)O)O2)O[C@]2(O[C@](C)([C@H]3CC[C@@](C)([C@@H]4O[C@@H]([C@H]5O[C@@](O)(CO)[C@H](C)C[C@@H]5C)C[C@@H]4C)O3)C[C@H]2C)[C@@H]1C [Nigericin]
change of bilayer resistance after ionophore incorporation [5]: a decrease in the resistance was observed
